Reference: patent US20220031596A1, “ANTI-AGING AGENT AND ANTI-AGING METHOD” (priority 2018, published 2022)

Tests used:
[1] = test system: estradiol concentration in the plasma; assay: Evaluation of estradiol secretion promoting effect (plasma estradiol, 24-week oral ingestion); assay type: in vivo, human; conditions: for estradiol concentration in the plasma, 0 weeks (before ingestion) / estradiol concentration in the plasma, 24 weeks (after ingestion) / estradiol concentration in the plasma, Change rate (24 weeks - 0 weeks): Low Dose Group (100 mg/daily, oral), mean±SD; for estradiol concentration in the plasma, 0 weeks (before ingestion): baseline
Protocol: In order to confirm a change in the estradiol quantity before and after ingestion of the nicotinamide mononucleotide, a test was conducted on healthy males and females aged 50 to 70 years.
As a sample of Working Example 7, a capsule formulation containing the nicotinamide mononucleotide and starch (100 mg of the nicotinamide mononucleotide in 4 capsules) (manufactured by SHINKOWA PHARMACEUTICAL Co., Ltd.) was used.
[…] In order to conduct appropriate evaluations, those who had been regularly using medical products for chronic diseases, those who had been consuming healthy foods that may affect clinical research, and those who were currently participating in other clinical researches or clinical trials or had participated in other clinical researches or clinical trials within the last three months were excluded from the subject for the evaluation. The capsule formulations were ingested at 10 am (between meals and fasting state) together with water or lukewarm water (oral administration).
Measurement of the estradiol quantity in the plasma was conducted by requesting the measurement to an external public organization according to a usual method. FIGS. 14a to 14c indicate transitions of the estradiol concentration (pg/ml) in the plasma for 24 weeks. FIG. 14a represents the transitions of the whole subjects; FIG. 14b represents the transitions of the male subjects; FIG. 14c represents the transitions of the female subjects. Further, FIGS. 15a to 15c indicate change rates (%) of the blood estradiol concentration up to 24 weeks when the nicotinamide mononucleotide was orally administered to the subjects for 24 weeks. FIG. 15a represents the change rates of the whole subjects; FIG. 15b represents the change rates of the male subjects; FIG. 15c represents the change rates of the female subjects. Further, Table 7 indicates the numerical values of the estradiol concentration (pg/ml) in the plasma before the ingestion of the nicotinamide mononucleotide (0 weeks) and after the ingestion of the nicotinamide mononucleotide (24 weeks). Note that the numerical values represent mean values±standard deviation.

[2] = test system: adrenocorticotropic hormone concentration in the plasma; assay: Evaluation of adrenocorticotropic hormone secretion promoting effect (plasma ACTH, 24-week oral ingestion); assay type: in vivo, human; conditions: for adrenocorticotropic hormone concentration in the plasma, 0 weeks (before ingestion) / adrenocorticotropic hormone concentration in the plasma, 24 weeks (after ingestion) / adrenocorticotropic hormone concentration in the plasma, Change rate (24 weeks - 0 weeks): High Dose Group (200 mg/daily, oral), mean±SD; for adrenocorticotropic hormone concentration in the plasma, 0 weeks (before ingestion): baseline
Protocol: In order to confirm a change in the adrenocorticotropic hormone quantity before and after ingestion of the nicotinamide mononucleotide, a test was conducted on healthy males and females aged 50 to 70 years.
As a sample of Working Example 10, a capsule formulation containing the nicotinamide mononucleotide and starch (200 mg of the nicotinamide mononucleotide in 4 capsules) (manufactured by SHINKOWA PHARMACEUTICAL Co., Ltd.) was used.
Each group consisting of five healthy males and females aged 50 to 70 years in an unbiased age group ingested the above high dose capsule formulation once a day by 4 capsules for 24 weeks (total 10 subjects, 200 mg/daily ingestion). In order to conduct appropriate evaluations, those who had been regularly using medical products for chronic diseases, those who had been consuming healthy foods that may affect clinical research, and those who were currently participating in other clinical researches or clinical trials or had participated in other clinical researches or clinical trials within the last three months were excluded from the subject for the evaluation. The capsule formulations were ingested at 10 am (between meals and fasting state) together with water or lukewarm water (oral administration).
Measurement of the adrenocorticotropic hormone quantity in the plasma was conducted by requesting the measurement to an external public organization according to a usual method. FIGS. 20a to 20c indicate transitions of the adrenocorticotropic hormone concentration (pg/ml) in the plasma for 24 weeks. FIG. 20a represents the transitions of the whole subjects; FIG. 20b represents the transitions of the male subjects; FIG. 20c represents the transitions of the female subjects. Further, FIGS. 21a to 21c indicate change rates (%) of the blood adrenocorticotropic hormone concentration up to 24 weeks when the nicotinamide mononucleotide was orally administered to the subjects for 24 weeks. FIG. 21a represents the change rates of the whole subjects; FIG. 21b represents the change rates of the male subjects; FIG. 21c represents the change rates of the female subjects. Further, Table 10 indicates the numerical values of the adrenocorticotropic hormone concentration (pg/ml) in the plasma before the ingestion of the nicotinamide mononucleotide (0 weeks) and after the ingestion of the nicotinamide mononucleotide (24 weeks). Note that the numerical values represent mean values±standard deviation.

## NC(=O)c1ccc[n+]([C@@H]2O[C@H](COP(=O)([O-])O)[C@@H](O)[C@H]2O)c1 [nicotinamide mononucleotide]
[1]; Female
  estradiol concentration in the plasma, 0 weeks (before ingestion): 10.0 ± 0.0 pg/mL
  estradiol concentration in the plasma, 24 weeks (after ingestion): 40.8 ± 70.6 pg/mL
  estradiol concentration in the plasma, Change rate (24 weeks - 0 weeks): 30.8 ± 70.6 pg/mL
[1]; Male
  estradiol concentration in the plasma, 0 weeks (before ingestion): 24.0 ± 9.4 pg/mL
  estradiol concentration in the plasma, 24 weeks (after ingestion): 24.9 ± 7.7 pg/mL
  estradiol concentration in the plasma, Change rate (24 weeks - 0 weeks): 0.9 ± 5.6 pg/mL
[1]; Whole Subjects
  estradiol concentration in the plasma, 0 weeks (before ingestion): 17.0 ± 9.7 pg/mL
  estradiol concentration in the plasma, 24 weeks (after ingestion): 32.9 ± 48.1 pg/mL
  estradiol concentration in the plasma, Change rate (24 weeks - 0 weeks): 15.9 ± 49.8 pg/mL
[1]; oral, 100 mg/daily, 24 weeks, FIGS. 14a-14c, 15a-15c
  estradiol concentrations in the plasma, effect of ingestion (in words): increased
[2]; Female
  adrenocorticotropic hormone concentration in the plasma, 0 weeks (before ingestion): 17.5 ± 7.0 pg/mL
  adrenocorticotropic hormone concentration in the plasma, 24 weeks (after ingestion): 21.9 ± 14.2 pg/mL
  adrenocorticotropic hormone concentration in the plasma, Change rate (24 weeks - 0 weeks): 4.4 ± 15.3 pg/mL
[2]; Male
  adrenocorticotropic hormone concentration in the plasma, 0 weeks (before ingestion): 24.4 ± 10.0 pg/mL
  adrenocorticotropic hormone concentration in the plasma, 24 weeks (after ingestion): 35.7 ± 10.2 pg/mL
  adrenocorticotropic hormone concentration in the plasma, Change rate (24 weeks - 0 weeks): 11.3 ± 4.6 pg/mL
[2]; Whole Subjects
  adrenocorticotropic hormone concentration in the plasma, 0 weeks (before ingestion): 20.9 ± 8.9 pg/mL
  adrenocorticotropic hormone concentration in the plasma, 24 weeks (after ingestion): 28.8 ± 13.7 pg/mL
  adrenocorticotropic hormone concentration in the plasma, Change rate (24 weeks - 0 weeks): 7.8 ± 11.2 pg/mL
[2]; oral, 200 mg/daily, 24 weeks, FIGS. 20a-20c, 21a-21c
  adrenocorticotropic hormone concentrations in the plasma, effect of ingestion (in words): increased
